Measurements: US9149038B2, “4-amino-6-(heterocyclic)picolinates and 6-amino-2-(heterocyclic)pyrimidine-4-carboxylates and their use as herbicides” (Dow AgroSciences LLC, priority 2013, dated 2015)
Read-outs that look alike come from different tables or passages of the source.

Assays:
[1] = system: Key Broadleaf Weed and Crop Species; experiment: Post-Emergent Test II: postemergent herbicidal activity, visual rating after 14 d (Table 7); type: in vivo; details: post-emergence, 336 h; for pest or weed control at 70 g/ha: 70 g ai/ha; for pest or weed control at 140 g/ha: 140 g ai/ha; for pest or weed control at 35 g/ha: 35 g ai/ha
Procedure, shortened: (§1)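 Greenhouse plants at first or second true leaf stage sprayed with compound in acetone/DMSO-based spray solution with crop oil concentrate and Triton X-155 at 187 L/ha, tested at highest rate and ½× to 1/16× dilutions; solvent blank controls. Injury rated visually 0–100% versus untreated plants after 14 d.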

[2] = system: Key Grass and Sedge Weeds as well as Grass Crops; experiment: Post-Emergent Test II: postemergent herbicidal activity, visual rating after 14 d (Table 8); type: in vivo; details: post-emergence, 336 h; for pest or weed control at 35 g/ha: 35 g ai/ha; for pest or weed control at 70 g/ha: 70 g ai/ha; for pest or weed control at 140 g/ha: 140 g ai/ha
Procedure, shortened: as §1

[3] = ABUTH: velvetleaf (Abutilon theophrasti), read-out: Visual Growth Reduction (%) 14 Days After Application ABUTH
[4] = AMARE: redroot pigweed (Amaranthus retroflexus), read-out: Visual Growth Reduction (%) 14 Days After Application AMARE
[5] = BRSNN: oilseed rape, canola (Brassica napus), read-out: Visual Growth Reduction (%) 14 Days After Application BRSNN
[6] = CHEAL: lambsquarters (Chenopodium album), read-out: Visual Growth Reduction (%) 14 Days After Application CHEAL
[7] = EPHHL: wild poinsettia (Euphorbia heterophylla), read-out: Visual Growth Reduction (%) 14 Days After Application EPHHL
[8] = HELAN: sunflower (Helianthus annuus), read-out: Visual Growth Reduction (%) 14 Days After Application HELAN
[9] = barnyardgrass (Echinochloa crus-galli), read-out: Visual Growth Reduction (%) 14 Days After Application, ECHCG
[10] = giant foxtail (Setaria faberi), read-out: Visual Growth Reduction (%) 14 Days After Application, SETFA
[11] = maize, corn (Zea mays), read-out: Visual Growth Reduction (%) 14 Days After Application, ZEAMX
[12] = rice (Oryza sativa), read-out: Visual Growth Reduction (%) 14 Days After Application, ORYSA
[13] = wheat, spring (Triticum aestivum), read-out: Visual Growth Reduction (%) 14 Days After Application, TRZAS
[14] = yellow nutsedge (Cyperus esculentus), read-out: Visual Growth Reduction (%) 14 Days After Application, CYPES

Compound: Nc1c(F)c(-c2ccc(Cl)c3c2OC(F)(F)O3)nc(C(=O)O)c1Cl [Compound 82]
- pest or weed control at 70 g/ha [1, 3]: 60 to 74%
- pest or weed control at 140 g/ha [1, 3]: 75 to 84%
- pest or weed control at 70 g/ha [1, 4]: 95 to 100%
- pest or weed control at 140 g/ha [1, 4]: 95 to 100%
- pest or weed control at 70 g/ha [1, 5]: 95 to 100%
- pest or weed control at 140 g/ha [1, 5]: 95 to 100%
- pest or weed control at 70 g/ha [1, 6]: 95 to 100%
- pest or weed control at 140 g/ha [1, 6]: 95 to 100%
- pest or weed control at 70 g/ha [1, 7]: 0 to 29%
- pest or weed control at 140 g/ha [1, 7]: 0 to 29%
- pest or weed control at 70 g/ha [1, 8]: 85 to 94%
- pest or weed control at 140 g/ha [1, 8]: 95 to 100%
- pest or weed control at 35 g/ha ([1]; lambsquarters (Chenopodium album), read-out: Visual Growth Reduction (%) 14 Days After Application CHEAL): 95 to 100%
- pest or weed control at 35 g/ha ([1]; oilseed rape, canola (Brassica napus), read-out: Visual Growth Reduction (%) 14 Days After Application BRSNN): 95 to 100%
- pest or weed control at 35 g/ha ([1]; redroot pigweed (Amaranthus retroflexus), read-out: Visual Growth Reduction (%) 14 Days After Application AMARE): 95 to 100%
- pest or weed control at 35 g/ha ([1]; sunflower (Helianthus annuus), read-out: Visual Growth Reduction (%) 14 Days After Application HELAN): 85 to 94%
- pest or weed control at 35 g/ha ([1]; velvetleaf (Abutilon theophrasti), read-out: Visual Growth Reduction (%) 14 Days After Application ABUTH): 30 to 44%
- pest or weed control at 35 g/ha ([1]; wild poinsettia (Euphorbia heterophylla), read-out: Visual Growth Reduction (%) 14 Days After Application EPHHL): 0 to 29%
- pest or weed control at 35 g/ha ([2]; barnyardgrass (Echinochloa crus-galli), read-out: Visual Growth Reduction (%) 14 Days After Application ECHCG): 0 to 29%
- pest or weed control at 70 g/ha [2, 9]: 0 to 29%
- pest or weed control at 140 g/ha [2, 9]: 0 to 29%
- pest or weed control at 35 g/ha ([2]; giant foxtail (Setaria faberi), read-out: Visual Growth Reduction (%) 14 Days After Application SETFA): 0 to 29%
- pest or weed control at 70 g/ha [2, 10]: 0 to 29%
- pest or weed control at 140 g/ha [2, 10]: 0 to 29%
- pest or weed control at 35 g/ha ([2]; maize, corn (Zea mays), read-out: Visual Growth Reduction (%) 14 Days After Application ZEAMX): 45 to 59%
- pest or weed control at 70 g/ha [2, 11]: 60 to 74%
- pest or weed control at 140 g/ha [2, 11]: 60 to 74%
- pest or weed control at 35 g/ha ([2]; rice (Oryza sativa), read-out: Visual Growth Reduction (%) 14 Days After Application ORYSA): 0 to 29%
- pest or weed control at 70 g/ha [2, 12]: 30 to 44%
- pest or weed control at 140 g/ha [2, 12]: 30 to 44%
- pest or weed control at 35 g/ha ([2]; wheat, spring (Triticum aestivum), read-out: Visual Growth Reduction (%) 14 Days After Application TRZAS): 60 to 74%
- pest or weed control at 70 g/ha [2, 13]: 60 to 74%
- pest or weed control at 140 g/ha [2, 13]: 75 to 84%
- pest or weed control at 35 g/ha ([2]; yellow nutsedge (Cyperus esculentus), read-out: Visual Growth Reduction (%) 14 Days After Application CYPES): 0 to 29%
- pest or weed control at 70 g/ha [2, 14]: 30 to 44%
- pest or weed control at 140 g/ha [2, 14]: 45 to 59%
